Experimental data published in PubChem BioAssay AID248 (DTP/NCI, 2004).
Values joined by “and” are separate entries in the source; they are usually repeats but may differ in a detail not shown here. Identical values can stand only once. Inconclusive results and toxic doses are left out. Rule as the data show it: active = T/C of 150% or more; inactive = T/C below 125%.

Test system: L1210 leukemia ip in BDF1 mice, survival T/C
Assay: NCI In Vivo Anticancer Drug Screen. Data for tumor model L1210 Leukemia (intraperitoneal) in B6D2F1 (BDF1) mice
Conditions: endpoint: mean survival time, higher = longer survival
In short: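 Transplantable tumor model; survival measured in treated vs vehicle control mice. Value = treated/control.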

[1] = dose: 50.0 mg/kg/injection, schedule: Q01DX009 (ip), vehicle: saline with Tween-80
[2] = dose: 100.0 mg/kg/injection, schedule: Q01DX009 (ip), vehicle: Klucel (hydroxypropylcellulose) (HPC)
[3] = dose: 100.0 mg/kg/injection, schedule: Q04DX003 (ip), vehicle: Klucel (hydroxypropylcellulose) (HPC)
[4] = dose: 200.0 mg/kg/injection, schedule: Q01DX009 (ip), vehicle: Klucel (hydroxypropylcellulose) (HPC)
[5] = dose: 200.0 mg/kg/injection, schedule: Q04DX003 (ip), vehicle: Klucel (hydroxypropylcellulose) (HPC)
[6] = dose: 400.0 mg/kg/injection, schedule: Q01DX009 (ip), vehicle: Klucel (hydroxypropylcellulose) (HPC)
[7] = dose: 400.0 mg/kg/injection, schedule: Q04DX003 (ip), vehicle: Klucel (hydroxypropylcellulose) (HPC)
[8] = dose: 50.0 mg/kg/injection, schedule: Q01DX001 (ip), vehicle: saline
[9] = dose: 100.0 mg/kg/injection, schedule: Q01DX001 (ip), vehicle: saline
[10] = dose: 100.0 mg/kg/injection, schedule: Q01DX009 (ip), vehicle: saline with Tween-80
[11] = dose: 100.0 mg/kg/injection, schedule: Q04DX003 (ip), vehicle: saline with Tween-80
[12] = dose: 200.0 mg/kg/injection, schedule: Q04DX003 (ip), vehicle: saline with Tween-80
[13] = dose: 400.0 mg/kg/injection, schedule: Q04DX003 (ip), vehicle: saline with Tween-80
[14] = dose: 100.0 mg/kg/injection, schedule: Q01DX001 (ip), vehicle: carboxymethylcellulose (CMC)
[15] = dose: 200.0 mg/kg/injection, schedule: Q01DX001 (ip), vehicle: carboxymethylcellulose (CMC)
[16] = dose: 400.0 mg/kg/injection, schedule: Q01DX001 (ip), vehicle: carboxymethylcellulose (CMC)

Measured: T/C

O=C1C(c2ccccc2)=C(c2ccccc2)c2c1c(-c1ccccc1)c(-c1ccccc1)c(-c1ccccc1)c2-c1ccccc1
inactive: dose: 6.25 mg/kg/injection, schedule: Q01DX001 (ip), vehicle: saline with Tween-80 98 % of control | dose: 12.5 mg/kg/injection, schedule: Q01DX001 (ip), vehicle: saline with Tween-80 98 % of control | dose: 25.0 mg/kg/injection, schedule: Q01DX001 (ip), vehicle: saline with Tween-80 89 % of control and 91 % of control | dose: 200.0 mg/kg/injection, schedule: Q01DX001 (ip), vehicle: saline with Tween-80 90 % of control | dose: 400.0 mg/kg/injection, schedule: Q01DX001 (ip), vehicle: saline with Tween-80 87 % of control

COc1ccc(C(=O)Nc2cc(Cl)ccc2OC)cc1
inactive: dose: 100.0 mg/kg/injection, schedule: Q01DX001 (ip), vehicle: other 101 % of control | dose: 100.0 mg/kg/injection, schedule: Q01DX009 (ip), vehicle: other 98 % of control and 102 % of control | dose: 100.0 mg/kg/injection, schedule: Q04DX002 (ip), vehicle: carboxymethylcellulose (CMC) 93 % of control and 103 % of control | dose: 100.0 mg/kg/injection, schedule: Q04DX003 (ip), vehicle: other 97 % of control | dose: 200.0 mg/kg/injection, schedule: Q01DX001 (ip), vehicle: other 93 % of control | dose: 200.0 mg/kg/injection, schedule: Q01DX009 (ip), vehicle: other 100 % of control and 109 % of control | dose: 200.0 mg/kg/injection, schedule: Q04DX002 (ip), vehicle: carboxymethylcellulose (CMC) 96 % of control and 116 % of control | dose: 200.0 mg/kg/injection, schedule: Q04DX003 (ip), vehicle: other 106 % of control | dose: 400.0 mg/kg/injection, schedule: Q01DX001 (ip), vehicle: other 97 % of control | dose: 400.0 mg/kg/injection, schedule: Q01DX009 (ip), vehicle: other 94 % of control and 88 % of control | dose: 400.0 mg/kg/injection, schedule: Q04DX002 (ip), vehicle: carboxymethylcellulose (CMC) 103 % of control and 104 % of control | dose: 400.0 mg/kg/injection, schedule: Q04DX003 (ip), vehicle: other 105 % of control

S=C(N/N=C/c1ccc(Cl)cc1Cl)Nc1cccc2cccnc12
inactive: dose: 5.0 mg/kg/injection, schedule: Q01DX001 (ip), vehicle: saline 96 % of control | dose: 10.0 mg/kg/injection, schedule: Q01DX001 (ip), vehicle: saline 96 % of control | dose: 20.0 mg/kg/injection, schedule: Q01DX001 (ip), vehicle: saline 86 % of control | dose: 40.0 mg/kg/injection, schedule: Q01DX001 (ip), vehicle: saline 98 % of control | dose: 80.0 mg/kg/injection, schedule: Q01DX001 (ip), vehicle: saline 90 % of control

O=C(CBr)c1ccc(Br)cc1
inactive: dose: 12.5 mg/kg/injection, schedule: Q01DX009 (ip), vehicle: Klucel (hydroxypropylcellulose) (HPC) 97 % of control | dose: 25.0 mg/kg/injection, schedule: Q01DX009 (ip), vehicle: Klucel (hydroxypropylcellulose) (HPC) 97 % of control | dose: 25.0 mg/kg/injection, schedule: Q04DX002 (ip), vehicle: Klucel (hydroxypropylcellulose) (HPC) 100 % of control | dose: 50.0 mg/kg/injection, schedule: Q01DX009 (ip), vehicle: Klucel (hydroxypropylcellulose) (HPC) 93 % of control | dose: 50.0 mg/kg/injection, schedule: Q04DX002 (ip), vehicle: Klucel (hydroxypropylcellulose) (HPC) 89 % of control | dose: 100.0 mg/kg/injection, schedule: Q04DX002 (ip), vehicle: Klucel (hydroxypropylcellulose) (HPC) 96 % of control and 107 % of control | dose: 200.0 mg/kg/injection, schedule: Q04DX002 (ip), vehicle: Klucel (hydroxypropylcellulose) (HPC) 111 % of control | dose: 400.0 mg/kg/injection, schedule: Q04DX002 (ip), vehicle: Klucel (hydroxypropylcellulose) (HPC) 92 % of control

CCOC(CN1CCCCC1)c1ccccc1 (configuration not stated)
inactive: dose: 12.5 mg/kg/injection, schedule: Q01DX009 (ip), vehicle: saline with Tween-80 98 % of control | dose: 25.0 mg/kg/injection, schedule: Q01DX009 (ip), vehicle: saline with Tween-80 102 % of control | [1] 100 % of control

CNC(=O)c1ccccc1C(O)(c1ccccc1)c1ccccc1
inactive: [2] 95 % of control | [3] 94 % of control | [4] 98 % of control | [5] 97 % of control | [6] 101 % of control | [7] 90 % of control

O=c1[nH]cnc2c1nnn2C1CC(O)C(CO)O1 (configuration not stated)
inactive: [8] 106 % of control | [9] 116 % of control | dose: 100.0 mg/kg/injection, schedule: Q04DX003 (ip), vehicle: saline 100 % of control | dose: 200.0 mg/kg/injection, schedule: Q04DX003 (ip), vehicle: saline 103 % of control | dose: 400.0 mg/kg/injection, schedule: Q04DX003 (ip), vehicle: saline 111 % of control

CCN(CC)CC(=O)NCC(C)(CCN1CCOCC1)c1cccc2ccccc12 (configuration not stated)
inactive: dose: 100.0 mg/kg/injection, schedule: Q01DX009 (ip), vehicle: saline 105 % of control | dose: 200.0 mg/kg/injection, schedule: Q01DX009 (ip), vehicle: saline 105 % of control | dose: 400.0 mg/kg/injection, schedule: Q01DX009 (ip), vehicle: saline 110 % of control

CCOc1ccc(NC(=O)CCN2CCC(O)(c3ccccc3)CC2)cc1
inactive: [10] 96 % of control | [11] 103 % of control | dose: 200.0 mg/kg/injection, schedule: Q01DX009 (ip), vehicle: saline with Tween-80 86 % of control | [12] 100 % of control | dose: 400.0 mg/kg/injection, schedule: Q01DX009 (ip), vehicle: saline with Tween-80 91 % of control | [13] 95 % of control

C[Si](C)(C)Cc1ccccc1F
inactive: dose: 25.6 mg/kg/injection, schedule: Q04DX002 (ip), vehicle: saline with Tween-80 101 % of control | dose: 64.0 mg/kg/injection, schedule: Q04DX002 (ip), vehicle: saline with Tween-80 93 % of control | dose: 160.0 mg/kg/injection, schedule: Q04DX002 (ip), vehicle: saline with Tween-80 104 % of control | dose: 400.0 mg/kg/injection, schedule: Q04DX002 (ip), vehicle: saline with Tween-80 90 % of control

Cc1ccc(S(=O)(=O)OCC2OCC(OC(=O)c3ccccc3)C(OC(=O)c3ccccc3)C2OC(=O)c2ccccc2)cc1 (configuration not stated)
inactive: [11] 93 % of control | [12] 93 % of control | [13] 90 % of control

O=C(O)CC/C(=N/OCc1cc2c(cc1Cl)OCO2)C(=O)O
inactive: dose: 100.0 mg/kg/injection, schedule: Q04DX003 (ip), vehicle: saline sonified 108 % of control | dose: 200.0 mg/kg/injection, schedule: Q04DX003 (ip), vehicle: saline sonified 93 % of control | dose: 400.0 mg/kg/injection, schedule: Q04DX003 (ip), vehicle: saline sonified 91 % of control

CCCCCCCCCC1=NN(C2=NCCCC2)C(=O)C1
inactive: [3] 100 % of control | [5] 101 % of control | [7] 95 % of control

Nc1cc(N2CCCC2)nc(-c2ccccc2)n1
inactive: [1] 98 % of control | [10] 95 % of control

O=C(OCC(O)C(O)C(O)C(O)COC(=O)c1ccccc1)c1ccccc1 (configuration not stated)
inactive: [14] 98 % of control | [15] 95 % of control | [16] 95 % of control

CC1CCCC(C)N1NC(=O)NCCCl (configuration not stated)
inactive: [2] 100 % of control | [3] 100 % of control | [4] 102 % of control | [5] 100 % of control | [6] 102 % of control | [7] 97 % of control

NC(=O)C1=CNCCC1
inactive: dose: 6.25 mg/kg/injection, schedule: Q01DX001 (ip), vehicle: saline 98 % of control | dose: 12.5 mg/kg/injection, schedule: Q01DX001 (ip), vehicle: saline 104 % of control | dose: 25.0 mg/kg/injection, schedule: Q01DX001 (ip), vehicle: saline 101 % of control | [8] 93 % of control and 118 % of control | [9] 114 % of control | dose: 200.0 mg/kg/injection, schedule: Q01DX001 (ip), vehicle: saline 109 % of control | dose: 400.0 mg/kg/injection, schedule: Q01DX001 (ip), vehicle: saline 118 % of control

CCSC(SCC)C(SCC)C(OC(=O)c1ccccc1)C(OC(=O)c1ccccc1)C(COC(=O)c1ccccc1)OC(=O)c1ccccc1 (configuration not stated)
inactive: [14] 114 % of control | [15] 112 % of control | [16] 93 % of control
